Measured values as given in patent publication US20070197556A1, “Fungicidal Mixtures” (priority 2004, published 2007).

Tested on: Pyrenophora teres
Assay: activity against net blotch of barley caused by Pyrenophora teres, 1 day protective application
Format: in vivo
Details: individual active compound, 5 ppm in the spray liquor, barley seedlings cultivar Hanna, assessed after 6 days
Procedure: The active compounds were prepared separately as a stock solution comprising 25 mg of active compound which was made up to 10 ml using a mixture of acetone and/or DMSO and the emulsifier Uniperol® EL (wetting agent having emulsifying and dispersing action based on ethoxylated alkylphenols) in a volume ratio solvent:emulsifier of 99:1. The mixture was then made up with water to 100 ml. The active compounds or mixtures were mixed or diluted with water to the desired concentration.
Use example—activity against net blotch of barley caused by Pyrenophora teres, 1 day protective application
Leaves of potted barley seedlings of the cultivar “Hanna” were sprayed to runoff point with an aqueous suspension having the concentration of active compound stated below. 24 hours after the spray coating had dried on, the test plants were inoculated blotch pathogen. […] After 6 days, the extent of the development of the disease was determined visually in % infection of the entire leaf area.
The visually determined values for the percentages of infected leaf areas were converted into efficacies in % of the untreated control:
The efficacy (E) is calculated as follows using Abbot's formula: E=(1−α/β)·100 • α corresponds to the fungal infection of the treated plants in % and • β corresponds to the fungal infection of the untreated (control) plants in % […]

CC1CCN(c2c(-c3c(F)cc(F)cc3F)c(Cl)nc3ncnn23)CC1 [I, 5-chloro-7-(4-methylpiperidin-1-yl)-6-(2,4,6-trifluorophenyl)[1,2,4]tri-azolo[1,5-a]pyrimidine]
Efficacy in % of the untreated control: 72%
